Laboratory results from US9232788B2, “Fumigation methods” (Honeywell International Inc., priority 2011, dated 2016).
Entries after “also recorded” stand apart in the source; their conditions may differ.

Experiments:
[1] = test system: Abutilon theophrasti Medik. seeds; test: Fumigant test on weed seeds in soil, seed germination count; assay type: in vivo; conditions: for Seeds Germinated Abutilon theophrastic Medik.: fourteen seeds in soil, two days treatment, counted after 10 days; for seed germination (in words): all experimental concentrations (80, 160, 440 ml)
Procedure: (§1) In particular, in 440 mL pressure vessels, fourteen seeds of Abutilon theophrasti Medik. and fifteen seeds of Lolium multiflorum Lam. were thoroughly mixed with 50 mL (approximately 30 grams) of soil and 6 mL of water. The filled vessels were kept at room temperature for 20-24 hr to allow the seeds to imbibe water before treatment. The vessels were sealed and evacuated, and then 80 ml, 160 ml and 440 ml respectively of gaseous 1225zc was added. The vessels were thoroughly mixed and placed horizontally on the laboratory bench at ambient temperature for two days. The contents of each bottle were transferred to a plastic sterile Petri dish containing 7 mL of water. The Petri dishes were sealed with parafilm and incubated in the laboratory at ambient temperature. After 10 days, the number of germinated seeds was counted.
The same experiment was performed as described in Example 1 except that hexafluoropropene (HFP) was used as the active fumigant composition.

[2] = test system: Lolium multiflorum Lam. seeds; test: as above; assay type: in vivo; conditions: for Seeds Germinated Loliium multiflorum Lam.: fifteen seeds in soil, two days treatment, counted after 10 days; for seed germination (in words): all experimental concentrations (80, 160, 440 ml)
Procedure: as §1, with “counted. […]” for “counted.”

[3] = Volatility of aqueous fumigant compositions with and without surfactant (weight loss); assay type: physicochemical; conditions: with Tween 80 nonionic surfactant versus without; 20° C., vented, weight loss every 30 seconds
Procedure: Experimentation was carried out to determine the volatility of aqueous fumigant compositions, both with and without inclusion of a surfactant. In each case, the fluorocarbon was placed in a chilled 500 ml Fischer Porter tube that was equipped with a vent to remove any gases. The vessel was cooled to 0° C. and was charged with varying amounts of water, fluorocarbon and surfactant. The temperature was equilibrated to 20° C. and the reactor was placed on a balance. The vent tube was opened and the weight loss was recorded every 30 seconds.
In analyzing the effects of adding surfactant to an aqueous solution of HFP, 10.11 grams of HFP was added to 39.71 grams of water. In a separate experiment, 9.83 grams of HFP and 4.03 grams of Tween™ 80 were added to 40.08 grams of water. FIG. 1 provides a graphical representation of the numerical data comparing the volatility of an aqueous solution of HFP, both with and without inclusion of the Tween™ 80 nonionic surfactant.
In analyzing the effects of adding surfactant to an aqueous solution of 1225zc, 10.78 grams of 1225zc were added to 39.69 grams of water. In a separate experiment, 10.70 grams of 1225zc and 4.08 grams of Tween™ 80 were added to 40.15 grams of water. […]

[4] = 80 ml gaseous fumigant in 440 mL vessel
[5] = 160 ml gaseous fumigant in 440 mL vessel
[6] = 440 ml gaseous fumigant in 440 mL vessel

Row | Compound | Seeds Germinated Abutilon theophrastic Medik. [1, 4] | Seeds Germinated Abutilon theophrastic Medik. [1, 5] | Seeds Germinated Abutilon theophrastic Medik. [1, 6] | seed germination (in words) [1] | seed germination (in words) ([1]; listed as 1125c) | Seeds Germinated Loliium multiflorum Lam. [2, 4] | Seeds Germinated Loliium multiflorum Lam. [2, 5] | Seeds Germinated Loliium multiflorum Lam. [2, 6] | seed germination (in words) [2] | seed germination (in words) ([2]; listed as 1125c) | retention of the fluorocarbon in aqueous solution [3]
1 | FC(F)=CC(F)(F)F [1225zc, 1,1,3,3,3-pentafluoropropene] | 0 | 0 | 0 | none | completely prevented seed germination | 0 | 0 | 0 | none | completely prevented seed germination | longer retention
2 | FC(F)=C(F)C(F)(F)F [HFP, hexafluoropropene] | 0 | 0 | 0 | completely prevented seed germination; also recorded: no germination occurred |  | 0 | 0 | 0 | completely prevented seed germination; also recorded: no germination occurred |  | longer retention
